From patent publication US20190388425A1, “SUBSTITUTED IMIDAZOPYRIDINPYRIMIDINES” (Bayer Pharma Aktiengesellschaft, priority 2017, published 2019)

Molecular target: T1, human full-length MKNK1 (Homo sapiens, UniProt Q9BUB5, T385D)
T1 construct: GST (N); purchased Carna Biosciences 02-145; host or cells: insect cells (baculovirus expression system)
Assay: MKNK1 kinase high ATP assay (TR-FRET)
Assay type: biochemical
Settings: TR-FRET, 2 mM ATP (high ATP), 15 min preincubation with enzyme, 30 min reaction at 22° C.; read-out: MKNK1 IC50
In short: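 Full-length human MKNK1 (T385D) preincubated 15 min at 22 °C with compound in HEPES pH 7.5/MgCl2/DTT buffer; reaction with 2 mM ATP (final) and 0.06 μM biotinylated peptide (final), 30 min at 22 °C.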

T1 sequence (Q9BUB5 1-424 isoform Q9BUB5-2 T344D): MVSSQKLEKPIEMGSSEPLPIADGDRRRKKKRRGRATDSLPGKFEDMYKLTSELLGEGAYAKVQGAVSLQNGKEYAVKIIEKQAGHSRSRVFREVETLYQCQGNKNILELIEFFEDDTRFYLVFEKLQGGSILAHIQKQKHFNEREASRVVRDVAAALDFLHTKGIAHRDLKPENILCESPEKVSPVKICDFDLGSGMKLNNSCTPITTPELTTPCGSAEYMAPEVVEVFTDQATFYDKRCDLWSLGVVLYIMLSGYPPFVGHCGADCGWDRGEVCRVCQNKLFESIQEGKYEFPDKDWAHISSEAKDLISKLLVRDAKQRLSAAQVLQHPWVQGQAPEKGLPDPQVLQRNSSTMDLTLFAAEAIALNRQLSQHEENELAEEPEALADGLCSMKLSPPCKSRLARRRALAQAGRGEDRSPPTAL

| IC50 [pM] | Compound |
| --- | --- |
| 300 | CN(C)C(=O)[C@H]1CCc2c(sc3ncnc(Nc4cc(Cl)c5n(c4=O)C(C)(C)NC5=O)c23)C1 [Example 111, (7S)-4-[(8-Chloro-3,3-dimethyl-1,5-dioxo-1,2,3,5-tetrahydroimidazo[1,5-a]pyridin-6-yl)amino]-N,N-dimethyl-5,6,7,8-tetrahydro[1]benzothieno[2,3-d]pyrimidine-7-carboxamide] |
| 200 | CC1(C)NC(=O)c2c(Cl)cc(Nc3ncnc4sc5c(c34)CC[C@H](C(=O)N3CCC3)C5)c(=O)n21 [Example 112, 6-{[(7S)-7-(Azetidine-1-carbonyl)-5,6,7,8-tetrahydro[1]benzothieno[2,3-d]pyrimidin-4-yl]amino}-8-chloro-3,3-dimethyl-2,3-dihydroimidazo[1,5-a]pyridine-1,5-dione] |
| 200 | CC1(C)NC(=O)c2c(Cl)cc(Nc3ncnc4sc5c(c34)CC[C@H](C(=O)N3CC(C#N)C3)C5)c(=O)n21 [Example 113, 1-{(7S)-4-[(8-Chloro-3,3-dimethyl-1,5-dioxo-1,2,3,5-tetrahydroimidazo[1,5-a]pyridin-6-yl)amino]-5,6,7,8-tetrahydro[1]benzothieno[2,3-d]pyrimidine-7-carbonyl}azetidine-3-carbonitrile] |
| < 100 | CN(C)[C@H]1CCN(C(=O)[C@H]2CCc3c(sc4ncnc(Nc5cc(Cl)c6n(c5=O)C(C)(C)NC6=O)c34)C2)C1 [Example 114, 8-Chloro-6-({(7S)-7-[(3S)-3-(dimethylamino)pyrrolidine-1-carbonyl]-5,6,7,8-tetrahydro[1]benzothieno[2,3-d]pyrimidin-4-yl}amino)-3,3-dimethyl-2,3-dihydroimidazo[1,5-a]pyridine-1,5-dione] |
| 200 | C[C@@H]1CN(C(=O)[C@H]2CCc3c(sc4ncnc(Nc5cc(Cl)c6n(c5=O)C(C)(C)NC6=O)c34)C2)CCN1C [Example 115, 8-Chloro-6-({(7S)-7-[(3R)-3,4-dimethylpiperazine-1-carbonyl]-5,6,7,8-tetrahydro[1]benzothieno[2,3-d]pyrimidin-4-yl}amino)-3,3-dimethyl-2,3-dihydroimidazo[1,5-a]pyridine-1,5-dione] |
| 300 | CC1(C)NC(=O)c2c(Cl)cc(Nc3ncnc4sc5c(c34)CC[C@H](C(=O)N3C[C@H]4C[C@@H]3CO4)C5)c(=O)n21 [Example 116, 8-Chloro-3,3-dimethyl-6-({(7S)-7-[(1R,4R)-2-oxa-5-azabicyclo[2.2.1]heptane-5-carbonyl]-5,6,7,8-tetrahydro[1]benzothieno[2,3-d]pyrimidin-4-yl}amino)-2,3-dihydroimidazo[1,5-a]pyridine-1,5-dione] |
| 400 | C[C@@H]1COCCN1C(=O)[C@H]1CCc2c(sc3ncnc(Nc4cc(Cl)c5n(c4=O)C(C)(C)NC5=O)c23)C1 [Example 117, 8-chloro-3,3-dimethyl-6-({(7S)-7-[(3R)-3-methylmorpholine-4-carbonyl]-5,6,7,8-tetrahydro[1]benzothieno[2,3-d]pyrimidin-4-yl}amino)-2,3-dihydroimidazo[1,5-a]pyridine-1,5-dione] |
| 400 | O=C1NC2(CCC2)n2c1c(Cl)cc(Nc1ncnc3sc4c(c13)CC[C@H](C(=O)N1C[C@H]3C[C@@H]1CO3)C4)c2=O [Example 118, 8′-chloro-6′-({(7S)-7-[(1R,4R)-2-oxa-5-azabicyclo[2.2.1]heptan-5-ylcarbonyl]-5,6,7,8-tetrahydro[1]benzothieno[2,3-d]pyrimidin-4-yl}amino)-2′H-spiro[cyclobutane-1,3′-imidazo[1,5-a]pyridine]-1′,5′-dione] |
| 900 | NC(=O)[C@H]1CCc2c(sc3ncnc(Nc4cc(Cl)c5n(c4=O)C4(CSC4)NC5=O)c23)C1 [Example 119, (7S)-4-[(8-chloro-1,5-dioxo-1,5-dihydro-2H-spiro[imidazo[1,5-a]pyridine-3,3′-thietan]-6-yl)amino]-5,6,7,8-tetrahydro[1]benzothieno[2,3-d]pyrimidine-7-carboxamide] |
